The text below walks through data of patent publication US20160183526A1, “FUNGICIDAL COMPOSITIONS” (Dow AgroSciences LLC, priority 2014, published 2016).

Some results are limits rather than exact numbers.

The conditions of series [1]: estimated from a survey of the literature; miscible means totally soluble in water in all amounts; cited from earlier work.
The nature of series [2]: Solubility of Compound A and prothioconazole in benzyl acetate/AMD810/cyclohexanone blends at 10° C. The conditions noted are these: one week. The format is physicochemical. As to the method: A total of 20 g of each solvent blend was prepared per sample. For example, one of the blends (Blend 4) was prepared by combining cyclohexanone 0.2 (4 g), benzyl acetate 0.2 (4 g) and AMD810 0.6 (12 g). To Blend 4 were added amounts of Compound A and prothioconazole technical active ingredients to achieve saturation concentrations of each. The samples were then stored at 10° C. for one week and then were analysed for soluble active ingredient content.

Series [3] is described as follows: Solubility of a mixture of Compound A and prothioconazole in benzyl acetate/AMD810 blends at 10° C. (HPLC). As to conditions: both actives saturated. In kind it is physicochemical. As to the method:
A study of the Compound A and prothioconazole solubility in blends of benzyl acetate/AMD810 was conducted. To each solvent blend both actives were added until each was saturated and the resulting mixtures were then stored at 10° C. until equilibrium was obtained. Aliquots of the supernatant layer were taken from each sample, filtered (0.45 μm mesh) and analyzed by HPLC to determine the solution concentration of each active in the blends.

Series [4] can be described thus: Approximate relative solubility of active ingredients in organic solvents at ambient temperature. In kind it is physicochemical.

For the molecule `CC(=O)OCc1ccccc1` [Benzyl acetate], in series [1], the “Solubility of Solvent in Water” value is 1000 to 3100 µg/mL.
For the molecule `CCCCOC(=O)C(C)O` (stereo not shown) [Butyl lactate], the “Solubility of Solvent in Water” value in series [1] was 42000 µg/mL.
As to `O=C1CCCCC1` [Cyclohexanone], the “Solubility of Solvent in Water” value in series [1] was 8600 to 25000 µg/mL.
As to `CCCCOC(=O)OCCCC` [Di-n-butyl carbonate], the “Solubility of Solvent in Water” value in series [1] was 820 µg/mL.
`CCOCCOCCO` [Diethylene glycol monoethyl ether]: in series [1], the “Solubility of Solvent in Water” value was “Miscible”.
On to `CCOCCOCCOC(C)=O` [Ethyl Diglycol Acetate], for which the “Solubility of Solvent in Water” value in series [1] is “Miscible”.
Take `CC(C)OC(=O)c1ccccc1` [Isopropyl benzoate]: the “Solubility of Solvent in Water” value in series [1] is 640 µg/mL.
As to `CCCCCCCC/C=C\CCCCCCCC(=O)OC` [Methyl oleate], the “Solubility of Solvent in Water” value in series [1] is 1.1 µg/mL.
For the molecule `COC(=O)c1ccccc1O` [Methyl salicylate], the “Solubility of Solvent in Water” value in series [1] was less than 5000 µg/mL.
As for `COC(=O)C(C)CCC(=O)N(C)C` (stereo not shown) [Methyl-5-(Dimethylamino)-2-Methyl-5-Oxopentanoate], the “Solubility of Solvent in Water” value in series [1] is 79000 µg/mL.
Consider `COC(=O)CCC(C)C(=O)OC` (stereo not shown) [Pentanedioic acid, 2-methyl-1,5-dimethyl ester], for which, in series [1], the “Solubility of Solvent in Water” value is 25000 µg/mL.
Turning to `CC1COC(=O)O1` (stereo not shown) [Propylene carbonate], the “Solubility of Solvent in Water” value in series [1] is 17500 µg/mL.
In the case of `OC(Cc1ccccc1Cl)(Cn1nc[nH]c1=S)C1(Cl)CC1` (stereo not shown) [Prothioconazole, prothioconazole], the “Prothioconazole Solubility @ 10° C.” value in series [2] (Blend 1: cyclohexanone 0/benzyl acetate 0/AMD810 1 (weight fraction)) is listed as 34.3 % w/w; in series [2] (Blend 2: cyclohexanone 0/benzyl acetate 0.2/AMD810 0.8 (weight fraction)) it was 32.3 % w/w; in series [2] (Blend 3: cyclohexanone 0.2/benzyl acetate 0/AMD810 0.8 (weight fraction)), 33.9 % w/w; in series [2] (Blend 4: cyclohexanone 0.2/benzyl acetate 0.2/AMD810 0.6 (weight fraction)), 32.9 % w/w; in series [2] (Blend 5: cyclohexanone 0/benzyl acetate 0.4/AMD810 0.6 (weight fraction)), 33.1 % w/w; in series [2] (Blend 6: cyclohexanone 0.2/benzyl acetate 0.4/AMD810 0.4 (weight fraction)), 32.1 % w/w. In addition, the “Prothioconazole Solubility @ 10° C.” value in series [2] (Blend 7: cyclohexanone 0/benzyl acetate 0.6/AMD810 0.4 (weight fraction)) was 32.1 % w/w; in series [2] (Blend 8: cyclohexanone 0/benzyl acetate 0.8/AMD810 0.2 (weight fraction)), 26.6 % w/w; in series [2] (Blend 10: cyclohexanone 0.2/benzyl acetate 0.6/AMD810 0.2 (weight fraction)) it was 29.9 % w/w; in series [2] (Blend 11: cyclohexanone 0/benzyl acetate 1/AMD810 0 (weight fraction)) it was 16.2 % w/w; in series [2] (Blend 12: cyclohexanone 0.2/benzyl acetate 0.8/AMD810 0 (weight fraction)), 18.4 % w/w. In addition, the “Prothioconazole Solubility at 10° C.” value in series [3] (benzyl acetate 0 wt % in blend with AMD810) was found to be 31.3 % w/w; in series [3] (benzyl acetate 20 wt % in blend with AMD810) it was 32.3 % w/w; in series [3] (benzyl acetate 40 wt % in blend with AMD810) it was 33.1 % w/w; in series [3] (benzyl acetate 60 wt % in blend with AMD810), 32.1 % w/w; in series [3] (benzyl acetate 80 wt % in blend with AMD810), 26.6 % w/w; in series [3] (benzyl acetate 100 wt % in blend with AMD810) it was 16.2 % w/w. Besides, the “Relative Solubility of Prothioconazole” value in series [4] (in 2-ethylhexanol) is “Very Low (<10)”; in series [4] (in 2-ethylhexyl benzoate), “Very Low (<10)”; in series [4] (in 2-ethylhexyl lactate) it was “Medium (>20 to 30)”; in series [4] (in 2-heptanone) it was “Low (10 to 20)”; in series [4] (in Alkyl naphthalene mixture), “Very Low (<10)”; in series [4] (in Benzyl acetate), “Low (10 to 20)”. The “Relative Solubility of Prothioconazole” value in series [4] (in Benzyl alcohol) was “Medium (>20 to 30)”; in series [4] (in Butyl benzoate), “Low (10 to 20)”; in series [4] (in Butyl lactate) it was “Low (10 to 20)”; in series [4] (in Butylene carbonate), “Very Low (<10)”; in series [4] (in Cyclohexanone), “High (>30)”; in series [4] (in Di-n-butyl carbonate), “Very Low (<10)”. The “Relative Solubility of Prothioconazole” value in series [4] (in Diethylene glycol monoethyl ether) is reported as “High (>30)”; in series [4] (in Ethyl Diglycol Acetate), “Very Low (<10)”; in series [4] (in Isoparaffin) it was “Very Low (<10)”; in series [4] (in Isopropyl benzoate) it was “Very Low (<10)”; in series [4] (in Methyl oleate), “Very Low (<10)”; in series [4] (in Methyl salicylate), “Very Low (<10)”. Moreover, the “Relative Solubility of Prothioconazole” value is on record as “High (>30)” in series [4] (in Methyl-5-(Dimethylamino)-2-Methyl-5-Oxopentanoate); “High (>30)” in series [4] (in N,N dimethyl fatty acid amides); “Medium (>20 to 30)” in series [4] (in N-formyl morpholine and propylene carbonate); “Low (10 to 20)” in series [4] (in Pentanedioic acid, 2-methyl-1, 5-dimethyl ester); “Medium (>20 to 30)” in series [4] (in Polyethylene glycol); “Low (10 to 20)” in series [4] (in Polypropylene glycol). Further, the “Relative Solubility of Prothioconazole” value in series [4] (in Propylene carbonate) is reported as “Very Low (<10)”; in series [4] (in Soybean oil), “Very Low (<10)”; in series [4] (in Sulfolane), “Low (10 to 20)”; in series [4] (in Tributoxyethyl phosphate), “High (>30)”; in series [4] (in dimethyl esters of adipic, glutaric and succinic acids), “Low (10 to 20)”.
